ChEMBL document CHEMBL4732153, “Phenyl 4-(2-oxopyrrolidin-1-yl)benzenesulfonates and phenyl 4-(2-oxopyrrolidin-1-yl)benzenesulfonamides as new antimicrotubule agents targeting the colchicine-binding site” (Eur J Med Chem, 2021)
Active and inactive are the calls of the source. No cut-off for these calls is given here.

How the values were obtained:
M21 [1] = experiment: Cell cycle arrest in human M21 cells assessed as accumulation at S phase at 2 to 5 times IC50 measured after 24 hrs by DAPI staining based flow cytometry (reference value: 16.1%); type: functional
HT-1080 = experiment: Antiproliferative activity against human HT-1080 cells assessed as reduction in cell viability measured after 48 hrs by sulforhodamine B assay; type: functional, cell-based; details: HT-1080, 48 h
HT-29 = experiment: Antiproliferative activity against human HT-29 cells assessed as reduction in cell viability measured after 48 hrs by sulforhodamine B assay; type: functional, cell-based; details: HT-29, 48 h
Sus scrofa [2] = species on record: Sus scrofa; experiment: Inhibition of porcine brain tubulin polymerization at 15 uM measured after 60 mins by fluorescence assay
Tubulin (Homo sapiens) [3] = molecular target: T1, Tubulin (Homo sapiens) (UniProt P68371+Q9H4B7+P0DPH7+P68366+Q13509+Q71U36+P04350+Q3ZCM7+P07437+P68363+Q9BQE3+Q6PEY2+Q13885+Q9BVA1+Q9BUF5); experiment: Disruption of microtubule polymerization in human M21 cells at 5 times IC50 measured after 24 hrs by DAPI staining based immunofluorescence microscopic analysis; type: cell-based
M21 [4] = experiment: Cell cycle arrest in human M21 cells assessed as accumulation at G0/G1 phase at 2 to 5 times IC50 measured after 24 hrs by DAPI staining based flow cytometry (reference value: 65.5%); type: functional
[5] = Solubility of compound in DMSO at 15 uM; type: physicochemical
M21 [6] = experiment: Antiproliferative activity against human M21 cells assessed as reduction in cell viability measured after 48 hrs by sulforhodamine B assay; type: functional, cell-based; details: M21, 48 h
Tubulin (Homo sapiens) [7] = molecular target: T1, Tubulin (Homo sapiens); experiment: Disruption of microtubule polymerization in human M21 cells assessed as induction of mitotic abnormalities at 5 times IC50 measured after 24 hrs by DAPI staining based immunofluorescence microscopic analysis; type: cell-based
MCF7 = experiment: Antiproliferative activity against human MCF7 cells assessed as reduction in cell viability measured after 48 hrs by sulforhodamine B assay; type: functional, cell-based; details: MCF7, 48 h
M21 [8] = experiment: Cell cycle arrest in human M21 cells assessed as accumulation at G2/M phase at 2 to 5 times IC50 measured after 24 hrs by DAPI staining based flow cytometry (reference value: 13.4%); type: functional
[9] = molecular target: Tubulin beta (Homo sapiens) (UniProt P68371+Q9H4B7+Q13509+P04350+Q3ZCM7+P07437+Q13885+Q9BVA1+Q9BUF5+A6NNZ2); experiment: Inhibition of EBI binding to colchicine-binding site of beta-tubulin in human M21 cells at 100 to 1000 times IC50 preincubated for 2 hrs followed by EBI addition and measured after 1.5 hrs by Western blot analysis; type: cell-based; details: time 3.5 hrs
M21 [10] = experiment: Cell cycle arrest in human M21 cells assessed as accumulation at SubG1 phase at 2 to 5 times IC50 measured after 24 hrs by DAPI staining based flow cytometry (reference value: 5%); type: functional
[11] = Toxicity in chick embryo assessed as death at 1 ug, iv incubated for 7 days relative to control; type: organism-based; details: in vivo, at 1 µg, time 7 day, read-out: Activity
[12] = Toxicity in chick embryo assessed as death at 20 ug, iv incubated for 7 days relative to control; type: organism-based; details: in vivo, at 20 µg, time 7 day, read-out: Activity
[13] = Solubility of compound in DMSO at 30 uM; type: physicochemical
Sus scrofa [14] = species on record: Sus scrofa; experiment: Inhibition of porcine brain tubulin polymerization at 30 uM measured after 60 mins by fluorescence assay
Sus scrofa [15] = species on record: Sus scrofa; experiment: Inhibition of porcine brain tubulin polymerization at 3 uM measured after 60 mins by fluorescence assay
[16] = Toxicity in chick embryo assessed as death at 10 ug, iv incubated for 7 days relative to control; type: organism-based; details: in vivo, at 10 µg, time 7 day, read-out: Activity
[17] = Solubility of compound in DMSO at 3 uM; type: physicochemical
M21 [18] = experiment: Cell cycle arrest in human M21 cells assessed as accumulation at SubG1 phase at 11 nM measured after 24 hrs by DAPI staining based flow cytometry (reference value: 5%); type: functional
M21 [19] = experiment: Cell cycle arrest in human M21 cells assessed as accumulation at G0/G1 phase at 11 nM measured after 24 hrs by DAPI staining based flow cytometry (reference value: 65.5%); type: functional
M21 [20] = experiment: Cell cycle arrest in human M21 cells assessed as accumulation at G2/M phase at 11 nM measured after 24 hrs by DAPI staining based flow cytometry (reference value: 13.4%); type: functional
M21 [21] = experiment: Cell cycle arrest in human M21 cells assessed as accumulation at S phase at 11 nM measured after 24 hrs by DAPI staining based flow cytometry (reference value: 16.1%); type: functional

Compound | Activity (M21 [1]) [%] | IC50 (HT-1080) [nM] | IC50 (HT-29) [nM] | Activity (M21 [4]) [%] | IC50 (M21 [6]) [nM] | IC50 (MCF7) [nM] | Activity (M21 [8]) [%] | Activity (M21 [10]) [%] | further results
COc1cc(NS(=O)(=O)c2ccc(N3CCCC3=O)cc2)cc(OC)c1OC | 7.5 | 130 | 80 | 8.2 | 56 | 88 | 80.4 | 3.9 | inhibition (Sus scrofa [2]): Active; Activity (Tubulin (Homo sapiens) [3]): Active; solubility [5]: Soluble; Activity (Tubulin (Homo sapiens) [7]): Active; Inhibition of EBI binding (active/inactive) [9]: Active; mortality at 168 h [11]: 8%
COc1ccccc1NS(=O)(=O)c1ccc(N2CCCC2=O)cc1 |  | 3200 | 2400 |  | 3000 | 1800 |  |  | 
COc1ccc(NS(=O)(=O)c2ccc(N3CCCC3=O)cc2)cc1 |  | 8500 | 4800 |  | 7500 | 4600 |  |  | 
COc1cc(OS(=O)(=O)c2ccc(N3CCCC3=O)cc2)cc(OC)c1OC | 6.1 | 11 | 16 | 8.3 | 13 | 17 | 81.8 | 3.8 | Activity (Tubulin (Homo sapiens) [3]): Active; Activity (Tubulin (Homo sapiens) [7]): Active; Inhibition of EBI binding (active/inactive) [9]: Active
O=C1CCCN1c1ccc(S(=O)(=O)Nc2cccc(Br)c2)cc1 |  | 1300 | 590 |  | 950 | 830 |  |  | 
O=C1CCCN1c1ccc(S(=O)(=O)Oc2cccc(I)c2)cc1 | 6.5 | 40 | 59 | 7.8 | 88 | 22 | 81.4 | 4.3 | 
O=C1CCCN1c1ccc(S(=O)(=O)Oc2cccc(F)c2)cc1 |  | 810 | 310 |  | 300 | 370 |  |  | 
O=C1CCCN1c1ccc(S(=O)(=O)Nc2cccc(F)c2)cc1 |  | 840 | 5400 |  | 2300 | 680 |  |  | 
O=C1CCCN1c1ccc(S(=O)(=O)Oc2ccccc2-c2ccccc2)cc1 |  | 370 | 350 |  | 190 | 210 |  |  | 
CC(C)c1ccccc1NS(=O)(=O)c1ccc(N2CCCC2=O)cc1 |  | 21000 | 12000 |  | 9900 | 16000 |  |  | 
O=C1CCCN1c1ccc(S(=O)(=O)Nc2cccc(I)c2)cc1 | 7.8 | 860 | 390 | 11.2 | 330 | 600 | 74.2 | 6.8 | Activity (Tubulin (Homo sapiens) [3]): Active; Activity (Tubulin (Homo sapiens) [7]): Active; Inhibition of EBI binding (active/inactive) [9]: Active
COc1cccc(NS(=O)(=O)c2ccc(N3CCCC3=O)cc2)c1 |  | 1300 | 860 |  | 940 | 1100 |  |  | 
COc1ccc(OS(=O)(=O)c2ccc(N3CCCC3=O)cc2)cc1 |  | 8500 | 4800 |  | 7500 | 4600 |  |  | 
COc1cc(OC)cc(OS(=O)(=O)c2ccc(N3CCCC3=O)cc2)c1 | 9.6 | 26 | 39 | 32.7 | 12 | 21 | 45.6 | 12.1 | Activity (Tubulin (Homo sapiens) [3]): Active; mortality at 168 h [12]: 18%; Activity (Tubulin (Homo sapiens) [7]): Active; Inhibition of EBI binding (active/inactive) [9]: Active; solubility [13]: Soluble; inhibition (Sus scrofa [14]): Active
COc1ccccc1OS(=O)(=O)c1ccc(N2CCCC2=O)cc1 |  | 1300 | 1200 |  | 1300 | 890 |  |  | 
COc1ccc(OS(=O)(=O)c2ccc(N3CCCC3=O)cc2)cc1OC |  | 590 | 690 |  | 650 | 290 |  |  | 

Compound | Activity (M21 [1]) [%] | IC50 (HT-1080) [nM] | IC50 (HT-29) [nM] | Activity (M21 [4]) [%] | IC50 (M21 [6]) [nM] | IC50 (MCF7) [nM] | Activity (M21 [8]) [%] | Activity (M21 [10]) [%] | further results
O=C1CCCN1c1ccc(S(=O)(=O)Oc2cccc(Cl)c2)cc1 |  | 180 | 120 |  | 110 | 140 |  |  | 
O=C1CCCN1c1ccc(S(=O)(=O)Oc2cc(Br)cc(Br)c2)cc1 | 7 | 11 | 10 | 9.4 | 8.7 | 11 | 79.7 | 3.9 | inhibition (Sus scrofa [15]): Active; mortality at 168 h [16]: 18%; Activity (Tubulin (Homo sapiens) [3]): Active; Activity (Tubulin (Homo sapiens) [7]): Active; Inhibition of EBI binding (active/inactive) [9]: Active; solubility [17]: Soluble
O=C1CCCN1c1ccc(S(=O)(=O)Nc2cc(Br)cc(Br)c2)cc1 | 6.3 | 590 | 390 | 8.3 | 280 | 520 | 81.2 | 4.2 | inhibition (Sus scrofa [15]): Active; mortality at 168 h [16]: 25%; Activity (Tubulin (Homo sapiens) [3]): Active; Activity (Tubulin (Homo sapiens) [7]): Active; Inhibition of EBI binding (active/inactive) [9]: Active; solubility [17]: Soluble
O=C1CCCN1c1ccc(S(=O)(=O)Oc2ccccc2)cc1 |  | 920 | 480 |  | 460 | 650 |  |  | 
O=C1CCCN1c1ccc(S(=O)(=O)Nc2cccc(Cl)c2)cc1 | 7.9 | 680 | 680 | 13.7 | 770 | 560 | 67.8 | 10.6 | 
O=C1CCCN1c1ccc(S(=O)(=O)Oc2ccc(-c3ccccc3)cc2)cc1 |  | 2600 | 2900 |  | 2300 | 1700 |  |  | 
O=C1CCCN1c1ccc(S(=O)(=O)Nc2ccccc2-c2ccccc2)cc1 | 12.1 | 1200 | 730 | 59.8 | 430 | 960 | 25.1 | 3 | 
O=C1CCCN1c1ccc(S(=O)(=O)Oc2cccc(Br)c2)cc1 | 9.6 | 80 | 60 | 24 | 40 | 60 | 53.1 | 13.3 | 
CC(C)c1ccccc1OS(=O)(=O)c1ccc(N2CCCC2=O)cc1 |  | 840 | 780 |  | 910 | 500 |  |  | 
COc1ccc(/C=C\c2cc(OC)c(OC)c(OC)c2)cc1O [COMBRETASTATIN A4] |  | 2.2 | 5.1 |  | 2.2 | 1.9 |  |  | inhibition (Sus scrofa [2]): Active; Activity (M21 [18]): 4.1%; Activity (M21 [19]): 9.2%; Activity (M21 [20]): 79.5%; Activity (M21 [21]): 7.2%; Inhibition of EBI binding (active/inactive) [9]: Active
COc1cccc(OS(=O)(=O)c2ccc(N3CCCC3=O)cc2)c1 |  | 190 | 120 |  | 120 | 100 |  |  | 
O=C1CCCN1c1ccc(S(=O)(=O)Nc2ccc(-c3ccccc3)cc2)cc1 |  | 8800 | 5400 |  | 4700 | 7000 |  |  | 
O=C1CCCN1c1ccc(S(=O)(=O)Nc2ccccc2)cc1 |  | 4900 | 3400 |  | 5600 | 2800 |  |  | 
COc1ccc(NS(=O)(=O)c2ccc(N3CCCC3=O)cc2)cc1OC |  | 2250 | 890 |  | 5100 | 2600 |  |  | 
COc1cc(NS(=O)(=O)c2ccc(N3CCCC3=O)cc2)cc(OC)c1 | 9.8 | 990 | 1300 | 43.1 | 390 | 690 | 42.2 | 4.9 | 
